# Experimental data: patent US20260250318A1, “COMPOSITIONS AND METHODS FOR CROSSING THE BLOOD BRAIN BARRIER” (VOYAGER THERAPEUTICS, INC., priority 2022, published 2026)
# Test system: brain, spinal cord, and DRG of the NHPs
# Experiment: NGS fold enrichment of synthetic library (passage 3) in NHPs, first cross-species screen
# Assay type: in vivo, cynomolgus macaques (Macaca fascicularis)
# Details: synthetic library passage 3, intravenous, RNA NGS, brain of NHPs, relative to wild-type AAV9
# Protocol: (§1) After creation of the synthetic library with the sub-selected variants, the synthetic library was screened (passage 3) in two NHPs (2-4 years of age) and two strains of mice, BALB/c (n=3, 6-8 weeks of age) and C57Bl/6 mice (n=3, 6-8 weeks of age), in a first cross-species evolution screen. The animals were injected intravenously with the synthetic library. After a period in vivo, (e.g., 28-days) RNA was extracted from nervous tissue, e.g., brain, spinal cord, and DRG of the NHPs and the brains of mice. Following RNA recovery and RT-PCR amplification, a systematic NGS enrichment analysis was performed, and the peptides comprised within the variants were identified and the capsid enrichment ratio for each variant compared to the wild-type AAV9 control was calculated (fold enrichment relative to wild-type AAV9) (Table 9). […] All animals were dosed intravenously at […] across the screen.
row,Sequence,Fold enrichment over AAV9 in the brain of NHPs [fold]
1,GSGTVHAATQNQQT,1.721
2,GRAPTNLSGQNQQT,1.118
3,GSGIPQRSGKNQQT,3.331
4,GSGQNQQASGRQQT,1.458
5,GPTNGRSSGQNQQT,2.034
6,GTASTYNSGQNQQT,1.099
7,GSGQVVAHVGNQQT,1.901
8,GGTRVVDSGQNQQT,1.676
9,GGRIVSLSGQNQQT,1.766
10,GSGYTSLFLQNQQT,2.710
11,GSGQNQQTVMTARA,1.117
12,GSGQSVQTVVNQQT,3.057
13,GSGQNRAHAFLQQT,1.795
14,GSGQSFQMHTNQQT,1.504
15,GSGQNGHLSLKQQT,2.362
16,GSLSHMESGQNQQT,1.120
17,GSGQNQQLAITLGT,1.011
18,GSGQNQQTRLTDLT,2.046
19,GSGPQSHTGQNQQT,1.757
20,GSSHTQALGQNQQT,1.784
21,GSGLAHLGGQNQQT,1.064
22,GSGQSHMATLNQQT,2.657
23,GDAGVRSSGQNQQT,2.068
24,GSGQNQQMAGAFRT,1.003

# Same assay, conditions: synthetic library passage 3, intravenous, RNA NGS, spinal cord of NHPs, relative to wild-type AAV9
row,Sequence,Fold enrichment over AAV9 in the spinal cord of NHPs [fold]
1,GSGTVHAATQNQQT,1.676
2,GRAPTNLSGQNQQT,0.687
3,GSGIPQRSGKNQQT,0.000
4,GSGQNQQASGRQQT,3.179
5,GPTNGRSSGQNQQT,8.903
6,GTASTYNSGQNQQT,2.560
7,GSGQVVAHVGNQQT,0.833
8,GGTRVVDSGQNQQT,9.735
9,GGRIVSLSGQNQQT,4.936
10,GSGYTSLFLQNQQT,0.010
11,GSGQNQQTVMTARA,1.535
12,GSGQSVQTVVNQQT,5.441
13,GSGQNRAHAFLQQT,0.000
14,GSGQSFQMHTNQQT,9.770
15,GSGQNGHLSLKQQT,1.896
16,GSLSHMESGQNQQT,0.829
17,GSGQNQQLAITLGT,0.000
18,GSGQNQQTRLTDLT,8.470
19,GSGPQSHTGQNQQT,9.490
20,GSSHTQALGQNQQT,0.143
21,GSGLAHLGGQNQQT,2.191
22,GSGQSHMATLNQQT,0.724
23,GDAGVRSSGQNQQT,3.918
24,GSGQNQQMAGAFRT,1.784

# Same assay, conditions: synthetic library passage 3, intravenous, RNA from brain of NHPs, NGS, relative to wild-type AAV9
row,Sequence,Fold enrichment over AAV9 in the brain of NHPs [fold]
1,GSGQNQQNLGKLNT,1.141
2,GSRTVPVYGQNQQT,1.371
3,GSGQTARNGINQQT,1.192
4,GPAQHGTSGQNQQT,1.407
5,GSGQNQQHHSSHTT,1.328
6,GSGIGSHIPQNQQT,1.319
7,GIPSIRESGQNQQT,1.282

# Same assay, conditions: synthetic library passage 3, intravenous, RNA from spinal cord of NHPs, NGS, relative to wild-type AAV9
row,Sequence,Fold enrichment over AAV9 in the spinal cord of NHPs [fold]
1,GSGQNQQNLGKLNT,0.000
2,GSRTVPVYGQNQQT,0.363
3,GSGQTARNGINQQT,2.030
4,GPAQHGTSGQNQQT,0.866
5,GSGQNQQHHSSHTT,2.158
6,GSGIGSHIPQNQQT,0.173
7,GIPSIRESGQNQQT,0.166

# Test system: brain
# Experiment: NGS fold enrichment of synthetic library (passage 3) in BALB/c mice, first cross-species screen
# Assay type: in vivo
# Details: synthetic library passage 3, intravenous, RNA NGS, brain of BALB/c mice, relative to wild-type AAV9
# Protocol: as §1
row,Sequence,Fold enrichment over AAV9 in the brain of Mice (BALB/c) [fold]
1,GSGTVHAATQNQQT,0.476
2,GRAPTNLSGQNQQT,0.169
3,GSGIPQRSGKNQQT,1.685
4,GSGQNQQASGRQQT,0.991
5,GPTNGRSSGQNQQT,1.308
6,GTASTYNSGQNQQT,0.625
7,GSGQVVAHVGNQQT,0.321
8,GGTRVVDSGQNQQT,0.370
9,GGRIVSLSGQNQQT,0.847
10,GSGYTSLFLQNQQT,1.044
11,GSGQNQQTVMTARA,0.843
12,GSGQSVQTVVNQQT,0.240
13,GSGQNRAHAFLQQT,1.271
14,GSGQSFQMHTNQQT,0.325
15,GSGQNGHLSLKQQT,0.270
16,GSLSHMESGQNQQT,0.265
17,GSGQNQQLAITLGT,0.143
18,GSGQNQQTRLTDLT,0.776
19,GSGPQSHTGQNQQT,0.447
20,GSSHTQALGQNQQT,0.874
21,GSGLAHLGGQNQQT,0.794
22,GSGQSHMATLNQQT,0.504
23,GDAGVRSSGQNQQT,1.193
24,GSGQNQQMAGAFRT,0.762

# Same assay, conditions: synthetic library passage 3, intravenous, RNA from brain of BALB/c mice, NGS, relative to wild-type AAV9
row,Sequence,Fold enrichment over AAV9 in the brain of Mice (BALB/c) [fold]
1,GSGQNQQNLGKLNT,0.687
2,GSRTVPVYGQNQQT,0.969
3,GSGQTARNGINQQT,0.472
4,GPAQHGTSGQNQQT,0.615
5,GSGQNQQHHSSHTT,0.452
6,GSGIGSHIPQNQQT,0.597
7,GIPSIRESGQNQQT,0.254

# Test system: brain
# Experiment: NGS fold enrichment of synthetic library (passage 3) in C57Bl/6 mice, first cross-species screen
# Assay type: in vivo
# Details: synthetic library passage 3, intravenous, RNA NGS, brain of C57Bl/6 mice, relative to wild-type AAV9
# Protocol: as §1
row,Sequence,Fold enrichment over AAV9 in the brain of Mice (C57Bl/6) [fold]
1,GSGTVHAATQNQQT,0.563
2,GRAPTNLSGQNQQT,0.757
3,GSGIPQRSGKNQQT,1.418
4,GSGQNQQASGRQQT,0.943
5,GPTNGRSSGQNQQT,0.936
6,GTASTYNSGQNQQT,0.250
7,GSGQVVAHVGNQQT,0.800
8,GGTRVVDSGQNQQT,0.676
9,GGRIVSLSGQNQQT,1.161
10,GSGYTSLFLQNQQT,0.490
11,GSGQNQQTVMTARA,0.995
12,GSGQSVQTVVNQQT,0.582
13,GSGQNRAHAFLQQT,1.200
14,GSGQSFQMHTNQQT,0.503
15,GSGQNGHLSLKQQT,0.718
16,GSLSHMESGQNQQT,0.489
17,GSGQNQQLAITLGT,0.877
18,GSGQNQQTRLTDLT,0.910
19,GSGPQSHTGQNQQT,0.958
20,GSSHTQALGQNQQT,0.882
21,GSGLAHLGGQNQQT,0.749
22,GSGQSHMATLNQQT,1.173
23,GDAGVRSSGQNQQT,1.033
24,GSGQNQQMAGAFRT,1.307

# Same assay, conditions: synthetic library passage 3, intravenous, RNA from brain of C57Bl/6 mice, NGS, relative to wild-type AAV9
row,Sequence,Fold enrichment over AAV9 in the brain of Mice (C57Bl/6) [fold]
1,GSGQNQQNLGKLNT,0.919
2,GSRTVPVYGQNQQT,1.226
3,GSGQTARNGINQQT,1.002
4,GPAQHGTSGQNQQT,1.030
5,GSGQNQQHHSSHTT,0.957
6,GSGIGSHIPQNQQT,0.822
7,GIPSIRESGQNQQT,0.484
